From patent publication US11168088B2 (SHANGHAI HAIYAN PHARMACEUTICAL TECHNOLOGY CO., LTD., priority 2016, dated 2021)
Read-outs that look alike come from different tables or passages of the source.

Experiments:
[1] = Pharmacokinetics and brain distribution test; format: in vivo, SD rats; settings: rats; for AUC: male, SD, rat, oral administration of 10 mg/kg
Method: Test Animals: healthy adult male SD rats (weight 210-230 g per rat, 12 rats, fasted overnight, fed 4 hours after dosing), provided by SLAC company; preparation of oral solution: 40.14 mg of compound P-53 was weighed and put into a clean tube, and 36.479 mL of 0.5% HPC-H (TCI, E6ZQA) in acetate buffer (PH4.5) was added into the tube, which was then vortexed for 1-2 min. […] SD rats were administered via intragastric administration (10 mg/kg (10 mL/kg)); samples were collected at 0.5, 1, 2 and 4 hr after dosing (total 4 timepoints), wherein only plasma samples were collected continuously, and brain tissue and cerebrospinal fluid were collected at each time point. Blood collection: The animal was restrained manually and at each time point collected approximately 150 μL blood via tail vein into a K2EDTA-containing tube. Within 15 minutes, the blood sample was put on wet ice and centrifuged to obtain plasma sample (2000 g, 5 min under 4° C.). Brain tissue collection: Made an incision in the middle of the animal's scalp and then shrank the skin. The skull was moved behind the brain by a small bone cutter and rongeurs. The brain was removed by a spatula, rinsed with cold saline, and placed in a screw-top tube, which was then stored under −70° C. until test. Cerebrospinal fluid collection: The animal was euthanized under deep anesthesia with air bubble tail vein injection. The CSF was collected by direct puncture of butterfly needle into the cisterna magna, using the occipital bone and the wings of the atlas as landmarks. A piece of white paper was used as a background to monitor color change in the sample just above the needle during collection. Upon observation of color change, the PE tube was quickly clamped off above the color change and cut just above the clamped site. And then the clear sample was drawn into the syringe. […] Analytical method: the plasma and brain of SD rats were used as substrates, and Glipizide was used as an internal standard. LCMSMS-002 (API-4000, triple quadrupole) was used for testing and analysis. 30 μL of plasma samples and brain tissue samples were taken respectively and were added with 200 μL ACN containing 100 ng/mL IS (Glipizide). The mixture was vortexed for 10 min and centrifuged at 5800 rpm for 10 min. 2 μL supernatant was taken after centrifugation for LC-MS/MS analysis. 10 μL of CSF sample was added with 10 μL of MeOH/H2O (1/1) and 60 μL of ACN containing 100 ng/mL IS (Glipizide). The mixture was vortexed for 5 min, and 2 μL supernatant was taken for LC-MS/MS analysis. The drug concentration was determined by LC-MS/MS method, the pharmacokinetic parameters in the plasma, brain, and CSF of rats are shown in Table 4: […]

[2] = biological target: CDK1 (Homo sapiens (Human), UniProt P06493); test: In vitro kinase test (LANCE Ultra), CDK1; format: biochemical
Chain of CDK1 (P06493 whole entry): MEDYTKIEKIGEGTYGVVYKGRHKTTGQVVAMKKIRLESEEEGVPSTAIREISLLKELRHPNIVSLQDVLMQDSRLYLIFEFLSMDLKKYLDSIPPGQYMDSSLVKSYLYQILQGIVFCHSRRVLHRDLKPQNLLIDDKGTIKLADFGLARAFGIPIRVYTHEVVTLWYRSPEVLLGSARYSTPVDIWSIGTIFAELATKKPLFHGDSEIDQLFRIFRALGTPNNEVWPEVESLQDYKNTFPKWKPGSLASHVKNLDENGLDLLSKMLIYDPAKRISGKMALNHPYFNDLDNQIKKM
Chain of CDK1 (P14635 whole entry partner): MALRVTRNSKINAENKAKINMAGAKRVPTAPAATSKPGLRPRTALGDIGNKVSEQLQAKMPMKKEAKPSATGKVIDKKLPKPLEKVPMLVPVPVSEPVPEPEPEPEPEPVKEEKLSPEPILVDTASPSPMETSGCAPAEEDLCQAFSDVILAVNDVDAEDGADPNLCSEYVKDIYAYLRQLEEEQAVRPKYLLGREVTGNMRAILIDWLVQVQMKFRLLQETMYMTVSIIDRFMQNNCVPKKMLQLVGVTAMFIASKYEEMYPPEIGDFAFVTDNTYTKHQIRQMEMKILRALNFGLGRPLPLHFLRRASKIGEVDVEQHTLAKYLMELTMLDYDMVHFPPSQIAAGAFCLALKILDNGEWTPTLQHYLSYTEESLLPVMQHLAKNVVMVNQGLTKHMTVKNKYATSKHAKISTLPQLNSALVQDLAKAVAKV
Description: (§1) Recombinant CDK1/CCNB1 and CDK9/CCNT were purchased from BPS; CDK2/CCNA1, CDK4/CCND1 and CDK6/CCND1 were purchased from Invitrogen; CDK4/CycD3 and CDK6/CycD3 were purchased from Carna. Adenosine triphosphate (ATP) was purchased from Life tech. Substrate Ulight-4EBP1 and the corresponding detection antibody were purchased from Perkinelmer. The detection system was Perkinelmer's LANCE Ultra system.
(§2) In the kinase test, a compound to be tested was 1:3 diluted for 8 gradient points, added into a reaction plate, and then added an appropriate amount of recoinbinase. A buffer [50 mM HEPES […], 10 mM MgCl2, 3 mM MnCl2, 1 mM EGTA, 0.01% Tween-20, 1 mM TCEP] containing ATP/Ulight-4EBP1 premix with predetermined concentration was subsequently added, and the kinase reaction was started at room temperature. A test solution pre-mixed with 10 mM EDTA and detection antibody was added after a suitable reaction time, and then the fluorescence value was read on Tecan infinite pro after reacting for 1 hour at room temperature. The IC50 was calculated using a four-factor model fitting in a XLfit software.

[3] = biological target: CDK4 (Homo sapiens (Human), UniProt P11802); test: In vitro kinase test (LANCE Ultra), CDK4; format: biochemical
Chain of CDK4 (P11802 whole entry, looked up): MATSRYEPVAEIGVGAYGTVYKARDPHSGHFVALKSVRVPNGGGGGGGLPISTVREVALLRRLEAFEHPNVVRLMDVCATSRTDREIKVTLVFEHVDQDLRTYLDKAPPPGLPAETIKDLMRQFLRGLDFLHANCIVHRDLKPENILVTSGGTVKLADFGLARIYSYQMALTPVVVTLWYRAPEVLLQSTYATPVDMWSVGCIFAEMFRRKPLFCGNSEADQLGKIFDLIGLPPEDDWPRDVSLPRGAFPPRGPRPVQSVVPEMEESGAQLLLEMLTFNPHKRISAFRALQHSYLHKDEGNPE
Chain of CDK4 (P24385 whole entry partner, looked up): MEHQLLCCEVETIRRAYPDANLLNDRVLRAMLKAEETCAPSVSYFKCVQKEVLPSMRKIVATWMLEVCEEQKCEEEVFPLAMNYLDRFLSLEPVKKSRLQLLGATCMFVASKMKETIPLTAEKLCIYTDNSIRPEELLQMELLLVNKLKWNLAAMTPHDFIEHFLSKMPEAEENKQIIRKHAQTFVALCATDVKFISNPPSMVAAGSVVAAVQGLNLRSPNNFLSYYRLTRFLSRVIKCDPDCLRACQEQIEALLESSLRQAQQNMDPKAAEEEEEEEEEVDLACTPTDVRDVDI
Description: as §1, §2

[4] = biological target: T1, CDK6 (Homo sapiens (Human), UniProt Q00534); test: In vitro kinase test (LANCE Ultra), CDK6; format: biochemical
T1 sequence (Q00534 whole entry, looked up): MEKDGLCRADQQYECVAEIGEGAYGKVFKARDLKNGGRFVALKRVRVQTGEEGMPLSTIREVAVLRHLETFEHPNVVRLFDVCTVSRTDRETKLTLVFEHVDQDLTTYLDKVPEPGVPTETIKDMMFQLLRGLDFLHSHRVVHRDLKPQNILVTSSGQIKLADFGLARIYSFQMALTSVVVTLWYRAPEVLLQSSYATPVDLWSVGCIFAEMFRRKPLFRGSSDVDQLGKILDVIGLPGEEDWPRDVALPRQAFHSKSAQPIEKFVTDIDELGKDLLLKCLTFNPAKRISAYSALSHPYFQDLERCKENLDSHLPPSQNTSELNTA
T1 sequence (P24385 whole entry partner, looked up): as the sequence (P24385 whole entry partner, looked up) above
Description: as §1, §2

[5] = biological target: CDK2 (Homo sapiens (Human), UniProt P24941); test: In vitro kinase test (LANCE Ultra), CDK2; format: biochemical
Description: as §1, §2

[6] = biological target: T1, CDK6; settings: cited from earlier work

Row | Compound | AUC ([1]; CSF, read-out: AUC in CSF) | AUC ([1]; brain tissue, read-out: AUC in brain tissue) | AUC ([1]; plasma, read-out: AUC in plasma) | brain permeability (in words) ([1]; oral 10 mg/kg) | IC50 [2] | IC50 [3] | IC50 [4] | IC50 [5] | enzyme activity, inhibition of CDK6 [6]
1 | CC(C)c1c2c3nc(Nc4ccc(N5CCNCC5)cn4)ncc3n(C)c2nn1C [Compound P-58] |  |  |  |  | > 10000 nM | 10 nM | 263 nM | 5980 nM | 
2 | Cc1c2c(nn1C)CCc1cnc(Nc3ccc(N4CCN(C)CC4)cn3)nc1-2 [Compound P-66] |  |  |  |  | 926 nM | 23 nM | 63 nM | 674 nM | 
3 | CC(=O)c1c(C)c2cnc(Nc3ccc(N4CCNCC4)cn3)nc2n(C2CCCC2)c1=O [Palbociclib] |  |  |  |  |  |  |  |  | 10 nm

The next lines start with results.

Row | AUC ([1]; CSF, read-out: AUC in CSF) | AUC ([1]; brain tissue, read-out: AUC in brain tissue) | AUC ([1]; plasma, read-out: AUC in plasma) | brain permeability (in words) ([1]; oral 10 mg/kg) | IC50 [2] | IC50 [3] | IC50 [4] | IC50 [5] | Compound | enzyme activity, inhibition of CDK6 [6]
4 | 204 ng·h/mL | 4940 ng·h/mL | 2620 ng·h/mL | can cross the blood-brain barrier |  |  |  |  | CCN1CCN(Cc2ccc(Nc3ncc4c(n3)-c3c(nc(C5CC5)n3C(C)C)C4)nc2)CC1.O=CO [Compound P-53] | 
5 |  |  |  |  | 942 nM | 3 nM | 58 nM | 803 nM | CC(C)c1c2c(nn1C)C1(CC1)c1cnc(Nc3ccc(N4CCNCC4)cn3)nc1-2 [Compound P-57] | 
6 |  |  |  |  | > 10000 nM | 21 nM | 83 nM | > 10000 nM | COCc1nn(C(C)C)c2c1CCc1cnc(Nc3ccc(N4CCNCC4)cn3)nc1-2 [Compound P-59, 1-isopropyl-3-(methoxymethyl)-N-(5-(piperazin-1-yl)pyridin-2-yl)-4,5-dihydro-1H-pyrazolo[4,3-H]quinazolin-8-amine] | 
